Measurements reported in the NIST ThermoML archive (doi:10.1016/j.jct.2006.08.009).
Numbers after ± are expanded uncertainties.

Assay: mn = molality of the nth substance listed, in mol/kg
Conditions: 350 kPa, Liquid; for apparent molar heat capacity: Extra sensitive DSC

O[C@H]1[C@H](O)[C@@H](O)[C@H](O)[C@@H](O)[C@H]1O [cis-1,2,3,5-trans-4,6-cyclohexanehexol] + O
Conditions	apparent molar heat capacity [J/K/mol]	mass density [kg/m3]
323.15 K, m1 = 0.05	402.6 ± 20	–
323.15 K, m1 = 0.0814	405.9 ± 13	–
323.15 K, m1 = 0.1	405 ± 11	–
323.15 K, m1 = 0.1028	401 ± 11	–
323.15 K, m1 = 0.248	400.7 ± 6.2	–
323.15 K, m1 = 0.3973	397.3 ± 5.3	–
323.15 K, m1 = 0.4994	398.9 ± 5.1	–
328.15 K, m1 = 0.02	410 ± 47	987.32 ± 0.21
328.15 K, m1 = 0.05	409.6 ± 20	989.63 ± 0.2
328.15 K, m1 = 0.0814	412.6 ± 13	992.01 ± 0.19
328.15 K, m1 = 0.1	411.7 ± 11	992.93 ± 0.32
328.15 K, m1 = 0.1028	408.3 ± 11	993.47 ± 0.22
328.15 K, m1 = 0.248	407.8 ± 6.1	1004.2 ± 0.19
328.15 K, m1 = 0.3973	404.3 ± 5.3	1014.83 ± 0.21
328.15 K, m1 = 0.4994	405.6 ± 5.1	1022.36 ± 0.22
333.15 K, m1 = 0.02	416 ± 46	–
333.15 K, m1 = 0.05	415.7 ± 19	–
333.15 K, m1 = 0.0814	418.7 ± 13	–
333.15 K, m1 = 0.1	417.8 ± 10	–
333.15 K, m1 = 0.1028	414.9 ± 10	–
333.15 K, m1 = 0.248	414.1 ± 6.1	–
333.15 K, m1 = 0.3973	410.5 ± 5.1	–
333.15 K, m1 = 0.4994	411.6 ± 5	–
338.15 K, m1 = 0.02	421 ± 43	982.18 ± 0.22
338.15 K, m1 = 0.05	421.5 ± 18	984.47 ± 0.21
338.15 K, m1 = 0.0814	424.1 ± 12	986.82 ± 0.2
338.15 K, m1 = 0.1	423.2 ± 10	987.73 ± 0.32
338.15 K, m1 = 0.1028	420.6 ± 10	988.27 ± 0.23
338.15 K, m1 = 0.248	419.6 ± 5.9	998.91 ± 0.18
338.15 K, m1 = 0.3973	416.1 ± 5.1	1009.45 ± 0.2
338.15 K, m1 = 0.4994	416.9 ± 5	1016.94 ± 0.21
343.15 K, m1 = 0.02	427 ± 42	–
343.15 K, m1 = 0.05	426.7 ± 17	–
343.15 K, m1 = 0.0814	429 ± 12	–
343.15 K, m1 = 0.1	427.9 ± 10	–
343.15 K, m1 = 0.1028	425.9 ± 9.7	–
343.15 K, m1 = 0.248	424.6 ± 5.8	–
343.15 K, m1 = 0.3973	421 ± 5.2	–
343.15 K, m1 = 0.4994	421.6 ± 5	–
348.15 K, m1 = 0.02	430.7 ± 41	976.46 ± 0.23
348.15 K, m1 = 0.05	431.2 ± 17	978.72 ± 0.22
348.15 K, m1 = 0.0814	433.3 ± 12	981.07 ± 0.22
348.15 K, m1 = 0.1	431.9 ± 9.8	981.98 ± 0.32
348.15 K, m1 = 0.1028	430.3 ± 9.5	982.51 ± 0.24
348.15 K, m1 = 0.248	428.9 ± 5.8	993.1 ± 0.19
348.15 K, m1 = 0.3973	425.2 ± 5	1003.55 ± 0.19
348.15 K, m1 = 0.4994	425.8 ± 4.8	1010.99 ± 0.2
353.15 K, m1 = 0.02	435.4 ± 40	–
353.15 K, m1 = 0.05	435.4 ± 16	–
353.15 K, m1 = 0.0814	437.2 ± 11	–
353.15 K, m1 = 0.1	435.3 ± 9.5	–
353.15 K, m1 = 0.1028	434.1 ± 9.4	–
353.15 K, m1 = 0.248	432.5 ± 5.8	–
353.15 K, m1 = 0.3973	428.9 ± 5	–
353.15 K, m1 = 0.4994	429.3 ± 4.8	–
358.15 K, m1 = 0.02	439.4 ± 40	970.24 ± 0.24
358.15 K, m1 = 0.05	439 ± 16	972.5 ± 0.24
358.15 K, m1 = 0.0814	440.6 ± 11	974.84 ± 0.23
358.15 K, m1 = 0.1	438.3 ± 9.3	975.72 ± 0.32
358.15 K, m1 = 0.1028	437.2 ± 9.2	976.24 ± 0.25
358.15 K, m1 = 0.248	435.7 ± 5.7	986.78 ± 0.21
358.15 K, m1 = 0.3973	432 ± 5	997.2 ± 0.19
358.15 K, m1 = 0.4994	432.4 ± 4.8	–
363.15 K, m1 = 0.02	442.2 ± 40	–
363.15 K, m1 = 0.05	441.7 ± 16	–
363.15 K, m1 = 0.0814	443.4 ± 11	–
363.15 K, m1 = 0.1	440.5 ± 9.2	–
363.15 K, m1 = 0.1028	439.4 ± 9.1	–
363.15 K, m1 = 0.248	438.2 ± 5.7	–
363.15 K, m1 = 0.3973	434.6 ± 5	–
363.15 K, m1 = 0.4994	434.8 ± 4.8	–
368.15 K, m1 = 0.02	–	963.51 ± 0.25
368.15 K, m1 = 0.05	–	965.76 ± 0.25
368.15 K, m1 = 0.0814	–	968.11 ± 0.24
368.15 K, m1 = 0.1	–	969.08 ± 0.27
368.15 K, m1 = 0.1028	–	969.48 ± 0.27
368.15 K, m1 = 0.248	–	980 ± 0.22
368.15 K, m1 = 0.3973	–	990.36 ± 0.2
368.15 K, m1 = 0.4994	–	997.73 ± 0.19
